Measurements taken from patent US9139809B2, “Bacterial vaccines with cell wall-associated ceramide-like glycolipids and uses thereof” (priority 2009, dated 2015).

Key:
malarial parasite = settings: mice, αGalCer as a therapeutic; cited from earlier work
M. tuberculosis = settings: αGalCer as a therapeutic; cited from earlier work
serum cytokines = settings: mice, cited from earlier work
M. tuberculosis H37Rv = settings: in vivo
tumor and malaria = settings: mice; cited from earlier work

SMILES | malarial parasite load (malarial parasite) | survival of M. tuberculosis infected mice (M. tuberculosis) | serum cytokines after a single injection (IFNγ, IL-12 and IL-4) (serum cytokines; single injection) | improvement of the protective efficacy of BCG, comparison of the two glycolipids (M. tuberculosis H37Rv) | levels of Th1 cytokines IL-12 and IFNγ (serum cytokines; compared with αGalCer) | anti-tumor and anti-malarial activity compared with αGalCer (tumor and malaria)
CCCCCCCCCCCCCCCCCCCCCCCCCC(=O)N[C@@H](CO[C@H]1O[C@H](CO)[C@H](O)[C@H](O)[C@H]1O)[C@H](O)[C@H](O)CCCCCCCCCCCCCC [αGalCer, (2S,3S,4R)-1-O-(α-D-galactopyranosyl)-N-hexacosanoyl-2-amino-1,3,4-octadecanetriol] | reduce malarial parasite load | prolong the survival | induces a cytokine storm in the serum |  |  | 
CCCCCCCCCCCCCCCCCCCCCCCCCC(=O)N[C@@H](CCC1OC(CO)C(O)C(O)C1O)[C@H](O)[C@H](O)CCCCCCCCCCCCCC (stereo partly drawn) [α-C-GalCer, (2S,3S,4R)-1-CH2-(α-galactopyranosyl)-N-hexacosanoyl-2-amino-1,3,4-octadecanetriol] |  |  |  | superior to αGalCer | induces higher levels | superior anti-tumor and anti-malarial activity as compared to αGalCer
